The PolyMetriX glass transition set
± gives the standard deviation of the reports.

In the case of `*CC(*)Br` (repeat unit) [Poly(vinyl bromide)], the glass transition temperature is reported as 100 °C.
Molecule `*CC(*)C(=O)OCC#N` (repeat unit) [Poly(cyanomethyl acrylate)] has a glass transition temperature of 23 °C.
For `*CC(*)C(=O)CC` (repeat unit) [Poly(vinyl ethyl ketone)], the glass transition temperature was -60 °C.
Molecule `*CC(*)C(=O)NCCCCCCCC` (repeat unit) [Poly(N-octyl acrylamide)] has a glass transition temperature of -53 °C.

Remark: another data set of the same source
With `*CC=C(C*)CCC` (repeat unit) [Poly(2-n-propyl-1 ,4-butadiene) ] the glass transition temperature was -77.6 ± 0.7 °C.
`*c1nc(C(F)(F)C(F)(F)OC(F)(F)F)nc(C(F)(F)C(F)(F)C(F)(F)C(*)(F)F)n1` (repeat unit) [Perfluoropolymer 2 ] showed a glass transition temperature of -18.6 ± 0.7 °C.
